Data published in patent US9421204B2, “Oligomer modified diaromatic substituted compounds” (priority 2010, dated 2016).
pEC50, pIC50: −log10 of the molar value. Where “and” joins values, the source holds several entries; their conditions need not be identical. Identical values can stand only once. Like-named read-outs stand apart in the source and are kept apart here. Each block holds one compound with its values, some of them ahead of it.

Legend:
[1] = biological target: Wild Type RT (Human immunodeficiency virus type 1 group M subtype B, UniProt P04585); experiment: HIV-1 Reverse Transcriptase Inhibition Assay; assay type: biochemical; details: Wild Type RT IC50
Procedure: The following materials were removed from the freezer and were stored on wet ice (dGTP, ^32P, purified enzyme extract, rCdG, dGTP, DNA). Test compounds were evaluated at a high test of 100 μM diluted in dH2O and if the stock solution was turbid, 1:1000 Triton-X was added to the stock solution. Thirty microliters (30 μL) of each dilution was then transferred in duplicate to the appropriate well of a 96-well plate. The positive and negative control wells each received 30 μL of dH2O instead of the compound. A 2× buffer was prepared in the following manner: 125 μL 2M Tris pH 8.0, 250 μL 3M KCl, 80 μL 1 M MgC12, 10 μL 2 M DTT, 40 μL 25 U/mL rCdG, 100 μL 1 mM dGTP, 10 μL 800 Ci/mMol alpha ^32P:dG TP, and 4.4 mL dH2O. Fifty microliters (50 μL) of 2× buffer was added to every well of the plate. BSA was diluted 1:100 and Triton-X 1:1000 in dH2O and the enzyme was added to the mixture at a 1:400 dilution. Twenty microliters (20 μL) of the enzyme solution was added to all of the wells of the plate except the negative control wells. Distilled water was used instead of enzyme in these wells. The plate was incubated at 37° C. for 30 minutes. Following incubation, 10 μL of 10 mg/mL DNA (MB-grade fish sperm) was added to each well, followed by 150 μL of cold 10% TCA in each well. The plate was incubated at room temperature for approximately 15 minutes in order to allow for precipitation of the samples. Following the incubation the contents were transferred to the appropriate filter plate. The plate was placed on the vacuum manifold and pushed firmly to induce suction. Wells were rinsed with 200 μL of cold TCA. Again, the plate was pushed down firmly and vacuum suction was applied. Once all of the liquid was aspirated from the filter plate, it was removed from the manifold and residual liquid was blotted from the bottom of the plastic base. The filtered wells were separated from the plastic base and the wells were blotted on clean, absorbent paper. The filtered wells were pushed into the cassette and a sheet of Millipore multiscreen tape was placed on the bottom of a Wallace Microbeta cassette covering all of the holes. Twenty microliters (20 μL) of Wallace Supermix Scintillant was added to each well and the top of the wells were covered with a sheet of the multiscreen tape. The plate was read on the Wallace MicroBeta counter to measure incorporated ^32P.

[2] = test system: HIV-1RF; experiment: Anti-HIV-1 cytoprotection assay in CEM-SS cells; assay type: cell-based
Procedure: Cell Preparation—CEM-SS cells were passaged in T-75 flasks prior to use in the antiviral assay. On the day preceding the assay, the cells were split 1:2 to assure they were in an exponential growth phase at the time of infection. Total cell and viability quantification was performed using a hemocytometer and Trypan Blue dye exclusion. […] The cells were resuspended at 5×10^4 cells per ml in tissue culture medium and added to the drug containing microtiter plates in a volume of 50 μL.
Virus Preparation—The virus used for the assay was the lymphocyte-tropic virus strain HIV-IRF. The virus was obtained from the NIH AIDS Research and Reference Reagent Program and stock virus pools were produced in CEM-SS cells. A pretitred aliquot of virus was removed from the freezer (−80° C.) and allowed to thaw slowly to room temperature in a biological safety cabinet.
(§1) Plate Format—Each plate contains cell control wells (cells only), virus control wells (cells plus virus), drug toxicity wells (cells plus drug only), drug colorimetric control wells (drug only) as well as experimental wells (drug plus cells plus virus). Samples were tested in triplicate with eleven half-log dilutions per compound.
(§2) Efficacy and Toxicity XTT—Following incubation at 37° C. in a 5% CO2 incubator, the test plates were stained with the tetrazolium dye XTT (2,3-bis(2-methoxy-4-nitro-5-sulfophenyl)-5-[(phenylamino)carbonyl]-2H-tetrazolium hydroxide). XTT-tetrazolium is metabolized by the mitochondrial enzymes of metabolically active cells to a soluble formazan product, allowing rapid quantitative analysis of the inhibition of HIV induced cell killing by anti-HIV test substances. XTT solution was prepared daily as a stock of 1 mg/mL in RPMI1640. Phenazine methosulfate (PMS) solution was prepared at 0.15 mg/mL in PBS and stored in the dark at −20° C. XTT/PMS stock was prepared immediately before use by adding 40 μL of PMS per ml of XTT solution. Fifty microliters of XTT/PMS was added to each well of the plate and the plate was re-incubated for 4 hours at 37° C. Plates were sealed with adhesive plate sealers and shaken gently or inverted several times to mix the soluble fosmazan product and the plate was read spectrophotometrically at 450/650 nm with a Molecular Devices Vmax plate reader.
Anti-HIV-1 Cytopathic Effects Inhibition Assay Evaluations: Eight compounds were evaluated against the RF strain of HIV-1 in CEM-SS cells using a 12 concentration dose response curve.
(§3) Data Analysis—Raw data was collected from the Softmax Pro 4.6 software and imported into a Excel XLFit4 spreadsheet for analysis by four parameter curve fit calculations. Both antiviral activity and toxicity are calculated.

[3] = Toxicity XTT in CEM-SS cells (cytoprotection assay); assay type: cell-based; details: human, CEM-SS cells, XTT; read-out: CEM-SS TC50
Procedure: Cell Preparation—CEM-SS cells were passaged in T-75 flasks prior to use in the antiviral assay. On the day preceding the assay, the cells were split 1:2 to assure they were in an exponential growth phase at the time of infection. Total cell and viability quantification was performed using a hemocytometer and Trypan Blue dye exclusion. Cell viability was greater than 95% for the cells to be utilized in the assay. The cells were resuspended at 5×10^4 cells per ml in tissue culture medium and added to the drug containing microtiter plates in a volume of 50 μL.
as §1, §2, §3

[4] = in vitro; assay type: in vitro ADME; details: human
Procedure: Each determination was performed in duplicate.
Vr is the volume of the receiver compartment in cm^3.
Vd is the volume of the donor compartment in cm^3.
A is the area of the cell monolayer (1.13 cm^2 for 12-well Transwell®).
CN is the nominal dosing concentration of the dosing solution in μM.
CA is the average of the nominal dosing concentration and the measured 120 minute donor concentration in μM.
Cr^final is the receiver concentration in μM at the end of the incubation period.
Cd^final is the concentration of the donor in μM at the end of the incubation period.

[5] = Caco-2 permeability characterization (plate certification); details: human; for Papp A→B: Caco-2, (A-to-B) Papp; for Papp B→A: Caco-2, (B-to-A) Papp; for efflux ratio: Caco-2, Efflux Ratio
Procedure: The objective of this study was to determine the bidirectional Caco-2 permeability of test compounds. Caco-2 monolayers were grown to confluence on collagen-coated, microporous, polycarbonate membranes in 12-well Costar Transwell® plates. Details of the plates and their certification are shown below. The permeability assay buffer for the donor chambers was Hanks Balanced Salt Solution containing 10 mM HEPES and 15 mM glucose (HBSSg) at a pH of 7.4. The buffer in the receiver chambers also contained 1% bovine serum albumin (BSA). The dosing solution concentrations were 10 μM in the assay buffer. Cell monolayers were dosed on the apical side (A to-B) or basolateral side (B-to-A) and incubated at 37° C. with 5% CO2 in a humidified incubator. After 2 hours, aliquots were taken from the receiver and donor chambers. Each determination was performed in duplicate. The lucifer yellow flux was also measured for each monolayer to ensure no damage was inflicted to the cell monolayers during the flux period. All samples were assayed by LC/MS/MS using electrospray ionization.

[6] = test system: NL4-3L100I; experiment: Anti-HIV cytoprotection assay, drug resistant NL4-3 L100I; assay type: cell-based; details: Human immunodeficiency virus 1, CEM-SS, HIV-1 strain NL4-3L100I, CEM-SS cells
Procedure: (§4) Cells were prepared as described above. Virus Preparation—The wild type NL4-3 and drug resistant A17 viruses were obtained from the NIH AIDS Research and Reference Reagent Program and stock virus pools were produced in CEM-SS cells. Amino acid substitutes of L100I, Y181C and P23L were introduced by site-directed mutagenesis into pN L4-3 and stock virus pools were produced in CEM-SS cells. A pretitered aliquot of virus was removed from the freezer (−80° C.) and allowed to thaw slowly to room temperature in a biological safety cabinet. Virus was re-suspended and diluted into tissue culture medium such that the amount of virus added to each well in a volume of 50 μL was the amount determined to yield 85 to 95% cell killing at 6 days post-infection.
as §2, with “Plate Format—Each plate contains cell control wells (cells only), virus control wells (cells plus virus), drug toxicity wells (cells plus drug only), drug colorimetric control wells (drug only) as well as experimental wells (drug plus cells plus virus). Samples were tested in triplicate with eleven half-log dilutions per compound. Efficacy” for “Efficacy”, “XTT-tetrazolium was” for “XTT-tetrazolium is”, “C. XTTIPMS” for “C. XTT/PMS”, “soluble formazan” for “soluble fosmazan”
as §3

[7] = test system: NL4-3Y181C; experiment: Anti-HIV cytoprotection assay, drug resistant NL4-3 Y181C; assay type: cell-based; details: HIV-1 strain NL4-3Y181C; for pEC50: CEM-SS cells
Procedure: as §4
as §2, with “Plate Format—Each plate contains cell control wells (cells only), virus control wells (cells plus virus), drug toxicity wells (cells plus drug only), drug colorimetric control wells (drug only) as well as experimental wells (drug plus cells plus virus). Samples were tested in triplicate with eleven half-log dilutions per compound. Efficacy” for “Efficacy”, “XTT-tetrazolium was” for “XTT-tetrazolium is”, “C. XTTIPMS” for “C. XTT/PMS”, “soluble formazan” for “soluble fosmazan”
as §3

[8] = test system: NL4-3P236L; experiment: Anti-HIV cytoprotection assay, drug resistant NL4-3 P236L; assay type: cell-based; details: HIV-1 strain NL4-3P236L; for pEC50: CEM-SS cells
Procedure: as §4
as §2, with “Plate Format—Each plate contains cell control wells (cells only), virus control wells (cells plus virus), drug toxicity wells (cells plus drug only), drug colorimetric control wells (drug only) as well as experimental wells (drug plus cells plus virus). Samples were tested in triplicate with eleven half-log dilutions per compound. Efficacy” for “Efficacy”, “XTT-tetrazolium was” for “XTT-tetrazolium is”, “C. XTTIPMS” for “C. XTT/PMS”, “soluble formazan” for “soluble fosmazan”
as §3

[9] = test system: A17K103N/Y181C; experiment: Anti-HIV cytoprotection assay, drug resistant A17; assay type: cell-based; details: Human immunodeficiency virus 1, CEM-SS, HIV-1 strain A17K103N/Y181C, CEM-SS cells
Procedure: as §4, with “cabinet.” for “cabinet. Virus was re-suspended and diluted into tissue culture medium such that the amount of virus added to each well in a volume of 50 μL was the amount determined to yield 85 to 95% cell killing at 6 days post-infection.”
as §2, with “Plate Format—Each plate contains cell control wells (cells only), virus control wells (cells plus virus), drug toxicity wells (cells plus drug only), drug colorimetric control wells (drug only) as well as experimental wells (drug plus cells plus virus). Samples were tested in triplicate with eleven half-log dilutions per compound. Efficacy” for “Efficacy”, “XTT-tetrazolium was” for “XTT-tetrazolium is”, “C. XTTIPMS” for “C. XTT/PMS”, “soluble formazan” for “soluble fosmazan”
as §3

[10] = Toxicity XTT in CEM-SS cells (drug resistant strain assay); assay type: cell-based; details: human, CEM-SS cells, read-out: TC50 (the source's name)
Procedure: as §4
as §2, with “Plate Format—Each plate contains cell control wells (cells only), virus control wells (cells plus virus), drug toxicity wells (cells plus drug only), drug colorimetric control wells (drug only) as well as experimental wells (drug plus cells plus virus). Samples were tested in triplicate with eleven half-log dilutions per compound. Efficacy” for “Efficacy”, “XTT-tetrazolium was” for “XTT-tetrazolium is”, “C. XTTIPMS” for “C. XTT/PMS”, “soluble formazan” for “soluble fosmazan”
as §3

[11] = Human immunodeficiency virus 1, CEM-SS

Compound: COCCOCCOCCNc1ccc2[nH]c(C(=O)N3CCN(c4ncccc4NC(C)C)CC3)cc2c1 [5-mPEG3-NH-Delavirdine]
pIC50 [1]: 6.00 | Therapeutic Index ([2]; CEM-SS/HIV-1RF): 212.67 | pEC50 ([2]; Human immunodeficiency virus 1, CEM-SS, CEM-SS cells, XTT, read-out: CEM-SS/HIV-1RF EC50): 6.80 | CC50 [3]: 34.9 µM | Papp A→B at 2 hours, 10 μM ([4]; Caco-2, pH 7.4, Test 2, 10 μM, 2 hours, pH 7.4, read-out: Average Papp, A→B): 333 nm/s | Papp B→A at 2 hours, 10 μM ([4]; Caco-2, pH 7.4, Test 2, 10 μM, 2 hours, pH 7.4, read-out: Average Papp, B→A): 418 nm/s | recovery at 2 h, 10 μM ([4]; Caco-2, pH 7.4, Test 2, 10 μM, 2 hours, read-out: Recovery (%) A→B): 94% | recovery at 2 h, 10 μM ([4]; Caco-2, pH 7.4, Test 2, 10 μM, 2 hours, read-out: Recovery (%) B→A): 96% | efflux ratio at 2 hours, 10 μM ([4]; Caco-2, pH 7.4, Test 2, read-out: Efflux Ratio (B→A/A→B)): 1.3

Compound: C[C@H]1O[C@@H](O[C@H]2[C@@H](O)C[C@H](O[C@H]3[C@@H](O)C[C@H](O[C@H]4CC[C@@]5(C)[C@H](CC[C@@H]6[C@@H]5C[C@@H](O)[C@]5(C)[C@@H](C7=CC(=O)OC7)CC[C@]65O)C4)O[C@@H]3C)O[C@@H]2C)C[C@H](O)[C@@H]1O [Digoxin]
Papp A→B ([5]; Test 1, Passage Number 65): 4.7 nm/s | Papp A→B ([5]; Test 2, Passage Number 59): 6.5 nm/s | Papp A→B ([5]; Test 2, Passage Number 67): 7.5 nm/s | Papp B→A ([5]; Test 1, Passage Number 65): 110 nm/s | Papp B→A ([5]; Test 2, Passage Number 59): 169 nm/s | Papp B→A ([5]; Test 2, Passage Number 67): 134 nm/s | efflux ratio ([5]; Test 1, Passage Number 65): 23 | efflux ratio ([5]; Test 2, Passage Number 59): 26 | efflux ratio ([5]; Test 2, Passage Number 67): 18

Compound: Cc1ccnc2c1NC(=O)c1cccnc1N2C1CC1 [Nevirapine, reference compound]
pEC50 [6]: < 5.00 | TI [7]: >1.2 | pEC50 [7]: 5.07 | pEC50 [7, 11]: < 5.00 | TI [8]: >33.3 and >35.7 | pEC50 [8]: 6.55 | pEC50 [8, 11]: 6.52 | pEC50 [9]: < 5.00 | CC50 ([10]; run with HIV-1 strain A17K103N/Y181C): > 10 µM | CC50 ([10]; run with HIV-1 strain NL4-3): > 10 µM | CC50 ([10]; run with HIV-1 strain NL4-3L100I): > 10 µM | CC50 ([10]; run with HIV-1 strain NL4-3P236L): > 10 µM | CC50 ([10]; run with HIV-1 strain NL4-3Y181C): > 10 µM

Papp ([5]; Caco-2, Papp): 208 nm/s
Compound: CC(C)NCC(O)COc1cccc2ccccc12 (centres unmarked) [Propranolol]
